In the Deep4Chem optical property database one finds emission maximum data, which are given here for 45 molecules.

Structures are written as SMILES.

This series can be described thus: solvent given as SMILES.
[1] abbreviates: in c1cc(-n2c3ccccc3c3ccccc32)cc(-n2c3ccccc3c3ccccc32)c1.

The molecule `CN(C)c1ccc(/C=C/C=C/C=C/c2ccc(B(O)O)cc2)cc1` registered an emission maximum (in C1CCCCC1) of 470 nm.
For the setting “in Cc1ccccc1”, `CCCCCn1c2cc(/C=C/c3ccc(N(c4ccccc4)c4ccccc4)cc3)ccc2c2ccc(/C=C/c3ccc(N(c4ccccc4)c4ccccc4)cc3)cc21` displayed an emission maximum of 451 nm.
The molecule `COc1cc(OC)cc(C2=C3C(C)=C(I)C(C)=[N+]3[B-](F)(F)n3c(/C=C/c4ccsc4)c(I)c(C)c32)c1` gave an emission maximum (in C1CCOC1) of 610 nm, an emission maximum (in CS(C)=O) of 621 nm and an emission maximum (in ClCCl) of 610 nm.
Take `CC(C)c1cccc(C(C)C)c1-n1c(=O)c2cc3nc(-c4ccccc4)c4cc5c(=O)n(-c6c(C(C)C)cccc6C(C)C)c(=O)c6cc7c(-c8ccccc8)nc8cc(c1=O)c2c1c3c4c(c56)c7c81`: for the setting “in ClC(Cl)Cl”, the emission maximum was 488 nm.
Where the note is “in ClCCl”, `CC(C)(C)c1ccc2c(c1)c1cc(C(C)(C)C)ccc1n2-c1ccc(N(c2ccc(-c3ccc(-c4ccc(-c5ccc(-c6ccc(N(c7ccc(-n8c9ccc(C(C)(C)C)cc9c9cc(C(C)(C)C)ccc98)cc7)c7ccc(-n8c9ccc(C(C)(C)C)cc9c9cc(C(C)(C)C)ccc98)cc7)cc6)cc5)c5nsnc45)cc3)cc2)c2ccc(-n3c4ccc(C(C)(C)C)cc4c4cc(C(C)(C)C)ccc43)cc2)cc1` displayed an emission maximum of 513 nm.
In the case of `CN(c1ccccc1)c1ccc(/C=C/c2ccccc2)cc1`, the emission maximum reads like this: (in CC#N) 450 nm; (in CCCCCC) 385 nm.
Turning to `COc1ccc(-c2ccc3c(c2)c2cc(-c4ccc(OC)cc4)ccc2n3-c2ccc(C(=O)c3ccc4sc5ccccc5c4c3)cc2)cc1`, the emission maximum came to 460.87 nm (in Cc1ccccc1) and 462 nm under setting [1].
For the molecule `CCOC(CN1C(=O)C2=C(c3cccs3)N(CC(OCC)OCC)C(=O)C2=C1c1cccs1)OCC`, under “in ClC(Cl)Cl”, the emission maximum worked out at 557 nm.
Take `COc1ccc2c(CC(=O)NN)coc2c1`: the emission maximum is, setting by setting: (in C1CCOC1) 381 nm; (in CC#N) 376 nm; (in CC(C)=O) 396 nm; (in CCCCO) 384 nm; (in CCCO) 396 nm; (in CCO) 374 nm. Besides, the emission maximum is, setting by setting: (in CCOC(C)=O) 368 nm; (in CN(C)C=O) 378 nm; (in CO) 378 nm; (in ClCCl) 402 nm.
`N#Cc1c(N2CCCCC2)cc(-c2ccc3ccc4cccc5ccc2c3c45)c2c1-c1ccccc1C2=O` yielded an emission maximum (in C1CCOC1) of 528 nm.
Consider `CC1(C)CC(=O)C2=C(C1)Oc1ccc3cc(O)ccc3c1C2c1ccccn1` (configuration not stated), for which the emission maximum is recorded as 374 nm (in C1CCOC1); 377 nm (in C1COCCO1); 378 nm (in CC#N); 359 nm (in CCCCCCC); 377 nm (in CCO); 377 nm (in CO). The same molecule registered an emission maximum (in O) of 378 nm.
As for `CCN(CC)c1ccc2cc(-c3nc4ccccc4n3-c3ccccc3)c(=O)oc2c1`, the emission maximum (in ClCCl) was determined as 479 nm.
`C[Si]1(C)O[Si](C)(C)c2cc3nc4ccc([N+](=O)[O-])cc4c(-c4ccccc4)c3cc2[Si](C)(C)O1`: the emission maximum (in ClCCl) is 520 nm.
For the setting “in C1CCOC1”, `COc1ccc(-n2c(-c3ccc(-c4cncc5ccccc45)cc3)nc3c4ccccc4c4ccccc4c32)cc1` returned an emission maximum of 429 nm.
As to `c1ccc(-c2cc(-c3ccc4ccc5c(-c6ccnc(-c7ccccn7)c6)ccc6ccc3c4c65)ccn2)nc1`, the emission maximum worked out at 408 nm (in C1CCOC1); 418.01 nm (in CC#N); 408 nm (in CCC#N); 408 nm (in CCCC#N); 397.99 nm (in CCCCCC); 429 nm (in CCCO). Also, the emission maximum runs as follows: (in CCO) 430 nm; (in CO) 430 nm; (in Cc1ccccc1) 410.17 nm.
With `O=C([O-])c1ccccc1C1=c2cc3c4c(c2Oc2c1cc1c5c2CCCN5CCC1)CCC[N+]=4CCC3`, the emission maximum runs as follows: (in CC#N) 603 nm; (in CCO) 593 nm; (in CN(C)C=O) 608 nm; (in O) 604 nm.
Regarding `CCOC(=O)c1cc(C(=O)OCC)c2cc(OC)ccc2n1`, where the note is “in CCO”, the emission maximum is on record as 441 nm.
Where the note is “in Cc1ccccc1”, `N#Cc1c(-n2c3ccccc3c3ccccc32)c(C#N)c(-n2c3ccccc3c3ccccc32)c(-n2c3ccccc3c3ccccc32)c1-n1c2ccccc2c2ccccc21` yielded an emission maximum of 507 nm.
For the molecule `O=S1(=O)c2ccccc2C2(c3cc(-c4ccc(N(c5ccccc5)c5ccccc5)cc4)ccc3-c3ccc(-c4ccc(N(c5ccccc5)c5ccccc5)cc4)cc32)c2ccccc21`, the emission maximum (in ClCCl) was 460 nm and the emission maximum under setting [1] was determined as 448 nm.
In turn, `Cc1ccccc1-c1c2ccc(=[N+]3CCCC3)cc-2oc2cc(N3CCCC3)ccc12` yielded an emission maximum (in CCO) of 576 nm and an emission maximum (in ClCCl) of 573 nm.
Where the note is “in ClC(Cl)Cl”, `COc1ccc2c(C=C(C#N)C#N)cc3ccc4cc(C=C(C#N)C#N)c5ccc(OC)cc5c4c3c2c1` showed an emission maximum of 545 nm.
Consider `Nc1ccc(/C=C/c2cccnc2)cc1`, for which the emission maximum came out at 446 nm (in CC#N) and 390 nm (in CCCCCC).
Turning to `CC1=CC(Br)=CN2C[n+]3cc(Br)cc(C)c3N=C12`, the emission maximum (in CO) is 502 nm.
For `CC(=O)Nc1cccc2c1C#Cc1c(cccc1C(=O)N(C)C)OCCCO2`, the emission maximum reads like this: (in CC#N) 394 nm; (in ClCCl) 390 nm.
`CC(C)(C)Nc1c(-c2ccc(-c3cc(=O)cc(-c4ccccc4)o3)cc2)nc2ccccn12` gave an emission maximum (in ClCCl) of 515 nm.
The same measure, in the same setting: for `CCOC(=O)c1ccc(C2CC(c3cccc4ccccc34)=NN2c2ccc(C)cc2)cc1` (configuration not stated) the value was 493 nm.
The molecule `Cc1ccc(-c2c3nc(c(-c4ccc(C)cc4)c4ccc([nH]4)c(-c4ccc(OC(=O)C(C)c5ccccc5)cc4)c4nc(c(-c5ccc(C)cc5)c5ccc2[nH]5)C=C4)C=C3)cc1` (configuration not stated) showed an emission maximum (in ClCCl) of 653 nm.
With `O=S1(=O)C2=C(c3ccc(N(c4ccccc4)c4ccccc4)cc31)C1(C3=C(c4ccccc41)S(=O)(=O)c1cc(N(c4ccccc4)c4ccccc4)ccc13)c1ccccc12`, the emission maximum by setting is: (in C1CCOC1) 561 nm; (in CC#N) 598 nm; (in CCCCCC) 521 nm; (in Cc1ccccc1) 543 nm; (in ClCCl) 577 nm.
`COc1ccc(-c2nc(-c3ccccc3)c(N(C)C)[se]2)cc1` yielded an emission maximum (in ClC(Cl)Cl) of 438 nm.
`N#Cc1c(-n2c3ccccc3c3ccccc32)cc(N2c3ccccc3C(c3ccccc3)(c3ccccc3)c3ccccc32)cc1-n1c2ccccc2c2ccccc21` returned an emission maximum (in Cc1ccccc1) of 471 nm.
Molecule `CC(C)(C)c1ccc2c(c1)c1cc(C(C)(C)C)ccc1n2-c1nc2ccccc2nc1-n1c2ccc(C(C)(C)C)cc2c2cc(C(C)(C)C)ccc21` displayed an emission maximum (in C1CCOC1) of 544.34 nm, an emission maximum (in CCCCCC) of 488.69 nm and an emission maximum (in Cc1ccccc1) of 527 nm.
Regarding `COc1ccc(N(c2ccc(OC)cc2)c2ccc3ccc4c(B(c5c(C)cc(C)cc5C)c5c(C)cc(C)cc5C)ccc5ccc2c3c54)cc1`, the emission maximum is, setting by setting: (in C1CCOC1) 626 nm; (in CC(C)=O) 658 nm; (in CCCCCC) 534 nm; (in Cc1ccccc1) 575 nm; (in ClC(Cl)Cl) 601 nm; (in ClCCl) 633 nm.
Where the note is “in ClC(Cl)Cl”, `CCOC(CN1C(=O)C2=C(c3ccsc3)N(CC(OCC)OCC)C(=O)C2=C1c1ccsc1)OCC` registered an emission maximum of 524 nm.
As to `O=P1(c2ccccc2)C(c2ccc(N(c3ccccc3)c3ccccc3)cc2)=Cc2ccccc21` (configuration not stated), the emission maximum was 521 nm (in C1CCOC1); 577 nm (in CC#N); 566 nm (in CN(C)C=O); 490 nm (in Cc1ccccc1); 529 nm (in ClC(Cl)Cl); 544 nm (in ClCCl).
On to `CC(C)(C)c1cc2ccc3cc(C(C)(C)C)cc4c3c2c(c1)c(=O)n1c4nc2c3cc(C(C)(C)C)cc4ccc5cc(C(C)(C)C)cc(c5c43)c21`, for which the emission maximum came to 523 nm (in C1CCOC1); 551 nm (in CC#N); 544 nm (in CC(C)=O); 495 nm (in CCCCCC); 524 nm (in CCOC(C)=O); 553 nm (in CS(C)=O). The emission maximum runs as follows: (in Cc1ccc(C)cc1) 521 nm; (in ClC(Cl)(Cl)Cl) 520 nm; (in ClC(Cl)Cl) 551 nm; (in c1ccccc1) 524 nm.
For the setting “in CO”, `CCN(C)c1ccc(C2=C3C(C)=CC(C)=[N+]3[B-](F)(F)n3c(C)cc(C)c32)cc1` yielded an emission maximum of 513 nm.
`COc1ccc(-c2cnc3cccc(-c4ccc(C(C)=O)cc4)n23)cc1` came in with an emission maximum (in ClCCl) of 537 nm.
As to `O=C(O)c1ccccc1-c1nc(-c2ccccc2)c2ccccn12`, the emission maximum (in CC#N) is 494 nm.
In the case of `CCN(CC)c1cc2oc3cc(O)c(F)cc3c(=O)c2cc1F`, the emission maximum (in CCO) is 438 nm.
Take `CC(C)(C)c1ccc2c(c1)Cc1cc(C(C)(C)C)ccc1-2`: the emission maximum (in C1CCCCC1) turned out to be 348 nm.
For `CCCCCCN1C(=O)c2cccc3c(-c4ccc(-c5cc(-c6ccc(C)cc6)nn5-c5ccccc5)s4)ccc(c23)C1=O`, the emission maximum (in ClCCl) was 519 nm.
The same measure, in the same setting: for `Cc1c(C(=O)c2ccccc2Cl)c2ccc3cccc4c5cccc6ccc1c(c65)c2c34` the value was 482 nm.
The molecule `Cc1ccc(NC(=O)c2ccc(N(C)C)cc2)cc1` registered an emission maximum (in C1CCCCC1) of 465 nm, an emission maximum (in C1CCOC1) of 532 nm, an emission maximum (in CC#N) of 502 nm and an emission maximum (in CCOCC) of 518 nm.
The molecule `CCCC1(CCC)c2cc(-c3cccc(Cc4ccc(/C=C/c5ccccc5)cc4)c3)ccc2-c2ccc(-c3cccc(Cc4ccc(/C=C/c5ccccc5)cc4)c3)cc21` showed an emission maximum (in C1CCCCC1) of 359 nm.
`CC(C)(C)c1ccc(-c2cc(-c3ccc(-c4cc(-c5ccc(C(C)(C)C)cc5)c(C(=O)NCc5ccccc5)s4)s3)sc2C(=O)NCc2ccccc2)cc1`: the emission maximum (in ClCCl) is 449 nm.
